Measurements published in PubChem BioAssay AID328 (DTP/NCI, 2004).
“And” between values parts separate entries of the source, which are not always exact repeats. Equal values may be shown once. Inconclusive results and toxic doses are left out.

Tested on: BDF1 mice, P388 leukemia ip, median survival T/C
Test: NCI In Vivo Anticancer Drug Screen. Data for tumor model P388 Leukemia (intraperitoneal) in B6D2F1 (BDF1) mice
Details: endpoint: median survival time, higher = longer survival
Summary of the method: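 Vehicle-dosed animals serve as the reference; survival of compound-dosed, tumour-implanted mice is divided by it.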

[1] = dose: 50.0 mg/kg/injection, schedule: Q01DX009 (ip), vehicle: saline with Tween-80
[2] = dose: 100.0 mg/kg/injection, schedule: Q01DX009 (ip), vehicle: saline with Tween-80
[3] = dose: 200.0 mg/kg/injection, schedule: Q01DX009 (ip), vehicle: saline with Tween-80

SMILES: COC1=C(N=[N+]=[N-])C(=O)C(OC)=C(N=[N+]=[N-])C1=O
- T/C (dose: 10.0 mg/kg/injection, schedule: Q04DX003 (ip), vehicle: saline): 100 % of control
- T/C (dose: 20.0 mg/kg/injection, schedule: Q04DX003 (ip), vehicle: saline): 100 % of control
- T/C (dose: 22.5 mg/kg/injection, schedule: Q01DX009 (ip), vehicle: saline): 114 % of control
- T/C (dose: 40.0 mg/kg/injection, schedule: Q04DX003 (ip), vehicle: saline): 108 % of control
- T/C (dose: 45.0 mg/kg/injection, schedule: Q01DX009 (ip), vehicle: saline): 123 % of control
- T/C (dose: 90.0 mg/kg/injection, schedule: Q01DX009 (ip), vehicle: saline): 114 % of control
- T/C (dose: 90.0 mg/kg/injection, schedule: Q04DX003 (ip), vehicle: saline): 122 % of control

SMILES: CO[C@H]1/C=C/O[C@@]2(C)Oc3c(C)c(O)c4c(O)c(c(/C=N/N5CCNCC5)c(O)c4c3C2=O)NC(=O)/C(C)=C\C=C\[C@H](C)[C@H](O)[C@@H](C)[C@@H](O)[C@@H](C)C(OC(C)=O)[C@@H]1C (some centres not stated)
- T/C (dose: 50.0 mg/kg/injection, schedule: Q01DX009 (ip), vehicle: saline): 114 % of control
- T/C (dose: 100.0 mg/kg/injection, schedule: Q01DX009 (ip), vehicle: saline): 114 % of control
- T/C (dose: 200.0 mg/kg/injection, schedule: Q01DX009 (ip), vehicle: saline): 114 % of control

SMILES: C(=C/c1nnc2ncccn12)/c1ccccc1
- T/C [1]: 97 % of control
- T/C [2]: 94 % of control
- T/C [3]: 110 % of control

SMILES: c1ccc2c(Nc3ccc(C4=NCCN4)cc3)nnc(Nc3ccc(C4=NCCN4)cc3)c2c1
- T/C (dose: 19.0 mg/kg/injection, schedule: Q04DX003 (ip), vehicle: saline with Tween-80): 119 % of control
- T/C (dose: 29.0 mg/kg/injection, schedule: Q04DX003 (ip), vehicle: saline with Tween-80): 115 % of control
- T/C (dose: 44.0 mg/kg/injection, schedule: Q04DX003 (ip), vehicle: saline with Tween-80): 119 % of control
- T/C (dose: 66.0 mg/kg/injection, schedule: Q04DX003 (ip), vehicle: saline with Tween-80): 154 % of control and 168 % of control
- T/C (dose: 100.0 mg/kg/injection, schedule: Q04DX003 (ip), vehicle: saline with Tween-80): 163 % of control
- T/C (dose: 150.0 mg/kg/injection, schedule: Q04DX003 (ip), vehicle: saline with Tween-80): 195 % of control

SMILES: O=[N+]([O-])c1cccc2c([N+](=O)[O-])cccc12
- T/C (dose: 100.0 mg/kg/injection, schedule: Q01DX001 (ip), vehicle: saline sonified): 95 % of control
- T/C (dose: 200.0 mg/kg/injection, schedule: Q01DX001 (ip), vehicle: saline sonified): 100 % of control
- T/C (dose: 400.0 mg/kg/injection, schedule: Q01DX001 (ip), vehicle: saline sonified): 115 % of control

SMILES: c1ccc(-c2c[se]nn2)cc1
- T/C (dose: 1.56 mg/kg/injection, schedule: Q01DX009 (ip), vehicle: saline + alcohol): 102 % of control
- T/C (dose: 3.13 mg/kg/injection, schedule: Q01DX009 (ip), vehicle: saline + alcohol): 100 % of control
- T/C (dose: 6.25 mg/kg/injection, schedule: Q01DX009 (ip), vehicle: saline + alcohol): 89 % of control
- T/C (dose: 6.25 mg/kg/injection, schedule: Q01DX009 (ip), vehicle: saline with Tween-80): 86 % of control

SMILES: Clc1c(Cl)c2c(Cl)c(Cl)c1C[P+](c1ccccc1)(c1ccccc1)CC[P+](c1ccccc1)(c1ccccc1)Cc1c(Cl)c(Cl)c(c(Cl)c1Cl)C[P+](c1ccccc1)(c1ccccc1)CC[P+](c1ccccc1)(c1ccccc1)C2
- T/C (dose: 1.56 mg/kg/injection, schedule: Q01DX009 (ip), vehicle: water): 92 % of control
- T/C (dose: 3.13 mg/kg/injection, schedule: Q01DX009 (ip), vehicle: water): 113 % of control
- T/C (dose: 6.25 mg/kg/injection, schedule: Q01DX009 (ip), vehicle: water): 106 % of control

SMILES: O=c1[nH]c(=O)n([C@H]2CCCO2)cc1F
- T/C (dose: 23.0 mg/kg/injection, schedule: Q01DX009 (ip), vehicle: water): 89 % of control
- T/C (dose: 39.0 mg/kg/injection, schedule: Q01DX009 (ip), vehicle: water): 87 % of control
- T/C (dose: 44.0 mg/kg/injection, schedule: Q01DX009 (ip), vehicle: Klucel (hydroxypropylcellulose) (HPC)): 104 % of control and 108 % of control and 109 % of control
- T/C (dose: 59.0 mg/kg/injection, schedule: Q01DX009 (ip), vehicle: Klucel (hydroxypropylcellulose) (HPC)): 100 % of control and 107 % of control and 111 % of control
- T/C (dose: 65.0 mg/kg/injection, schedule: Q01DX009 (ip), vehicle: water): 99 % of control
- T/C (dose: 65.0 mg/kg/injection, schedule: Q04DX003 (ip), vehicle: water): 89 % of control
- T/C (dose: 75.0 mg/kg/injection, schedule: Q04DX003 (ip), vehicle: other): 118 % of control
- T/C (dose: 90.0 mg/kg/injection, schedule: Q01DX009 (ip), vehicle: Klucel (hydroxypropylcellulose) (HPC)): 87 % of control and 104 % of control and 112 % of control
- T/C (dose: 108.0 mg/kg/injection, schedule: Q01DX009 (ip), vehicle: water): 101 % of control
- T/C (dose: 108.0 mg/kg/injection, schedule: Q04DX003 (ip), vehicle: water): 98 % of control
- T/C (dose: 134.0 mg/kg/injection, schedule: Q01DX009 (ip), vehicle: Klucel (hydroxypropylcellulose) (HPC)): 108 % of control and 120 % of control (2×)
- T/C (dose: 142.0 mg/kg/injection, schedule: Q04DX003 (ip), vehicle: Klucel (hydroxypropylcellulose) (HPC)): 103 % of control and 109 % of control and 110 % of control
- T/C (dose: 150.0 mg/kg/injection, schedule: Q04DX003 (ip), vehicle: other): 118 % of control
- T/C (dose: 180.0 mg/kg/injection, schedule: Q01DX009 (ip), vehicle: water): 89 % of control
- T/C (dose: 180.0 mg/kg/injection, schedule: Q04DX003 (ip), vehicle: water): 96 % of control
- T/C (dose: 189.0 mg/kg/injection, schedule: Q04DX003 (ip), vehicle: Klucel (hydroxypropylcellulose) (HPC)): 105 % of control and 113 % of control and 117 % of control
- T/C (dose: 201.0 mg/kg/injection, schedule: Q01DX009 (ip), vehicle: Klucel (hydroxypropylcellulose) (HPC)): 102 % of control and 111 % of control
- T/C (dose: 288.0 mg/kg/injection, schedule: Q04DX003 (ip), vehicle: Klucel (hydroxypropylcellulose) (HPC)): 109 % of control and 112 % of control and 118 % of control
- T/C (dose: 300.0 mg/kg/injection, schedule: Q04DX003 (ip), vehicle: other): 118 % of control
- T/C (dose: 300.0 mg/kg/injection, schedule: Q04DX003 (ip), vehicle: water): 100 % of control
- T/C (dose: 316.0 mg/kg/injection, schedule: Q01DX001 (ip), vehicle: Klucel (hydroxypropylcellulose) (HPC)): 104 % of control (2×) and 109 % of control
- T/C (dose: 421.0 mg/kg/injection, schedule: Q01DX001 (ip), vehicle: Klucel (hydroxypropylcellulose) (HPC)): 109 % of control and 111 % of control and 123 % of control
- T/C (dose: 430.0 mg/kg/injection, schedule: Q04DX003 (ip), vehicle: Klucel (hydroxypropylcellulose) (HPC)): 109 % of control and 110 % of control and 113 % of control
- T/C (dose: 500.0 mg/kg/injection, schedule: Q04DX003 (ip), vehicle: water): 92 % of control
- T/C (dose: 600.0 mg/kg/injection, schedule: Q04DX003 (ip), vehicle: other): 95 % of control
- T/C (dose: 641.0 mg/kg/injection, schedule: Q01DX001 (ip), vehicle: Klucel (hydroxypropylcellulose) (HPC)): 104 % of control and 118 % of control and 124 % of control
- T/C (dose: 645.0 mg/kg/injection, schedule: Q04DX003 (ip), vehicle: Klucel (hydroxypropylcellulose) (HPC)): 111 % of control and 114 % of control
- T/C (dose: 957.0 mg/kg/injection, schedule: Q01DX001 (ip), vehicle: Klucel (hydroxypropylcellulose) (HPC)): 104 % of control and 123 % of control
- T/C (dose: 1200.0 mg/kg/injection, schedule: Q04DX003 (ip), vehicle: other): 90 % of control
- T/C (dose: 1436.0 mg/kg/injection, schedule: Q01DX001 (ip), vehicle: Klucel (hydroxypropylcellulose) (HPC)): 105 % of control and 117 % of control

SMILES: CS(=O)CC(O)(c1ccccc1)c1cccnc1 (configuration not stated)
- T/C [1]: 103 % of control
- T/C [2]: 92 % of control
- T/C [3]: 107 % of control
